Measured values published in US11426385B2, “Methods of improving cancer chemotherapy” (THE REGENTS OF THE UNIVERSITY OF CALIFORNIA, priority 2017, dated 2022).

How the values were obtained:
COX-1 = COX-1 inhibitory activity (Table 3); format: biochemical; parameters: dose or concentration left out as unconfirmed
[1] = test system: J82 bladder cancer cell line; experiment: 72 hr cell viability assay (MTS), J82; format: cell-based, human; conditions: PTUPB 1, 2, 5, 10 μM
Procedure: (§1) Median effect analysis to determine in vitro drug-drug interaction. […] PTUPB was dissolved in dimethyl sulfoxide (DMSO) to a final stock concentration of 10 mM. […] Cells were seeded at 2,000-3,000 cells and 100 μl of medium per well into 96-well plates (Becton Dickinson, Franklin Lakes, N.J.), and incubated overnight. Different concentrations of these two drugs were diluted in culture media and added to each well. The plates were then incubated for an additional 72 hours. The control group was dosed with 0.2% DMSO. Cell viability assays (MTS) were performed according to the manufacturer's protocol (Promega, Madison, Wis.). […] Dose-response curves were generated with GraphPad Prism 5 software (GraphPad Software Inc., La Jolla, Calif.). The combination indices (CI) were determined based on the method of Chou et al (26). CI values were calculated with CompuSyn software (http://www.combosyn.com/).

[2] = test system: 5637 bladder cancer cells; experiment: 72 hr cell viability assay (MTS) and combination index, 5637; format: cell-based, human
Procedure: as §1

[3] = test system: TCCSUP bladder cancer cell line; experiment: 72 hr cell viability assay (MTS), TCCSUP; format: cell-based, human; conditions: PTUPB 1, 2, 5, 10 μM
Procedure: as §1

[4] = test system: T24 bladder cancer cell line; experiment: 72 hr cell viability assay (MTS), T24; format: cell-based, human; conditions: PTUPB 1, 2, 5, 10 μM
Procedure: as §1

[5] = toxicity in PDX-bearing mice (body weight, blood counts, chemistry, histology of major organs); parameters: species or system NSG mice; conditions: mouse, in vivo
Procedure: (§2) PDX bladder cancer. NSG PDX studies were performed at the University of California Davis with IACUC approval. […] Gemcitabine was dissolved in 0.9% saline and administered at a dose of 150 mg/kg (IP, weekly) for 4 weeks. Animal weight and tumor size were measured twice per week. […] The percentage of tumor growth inhibition (TGI) was calculated as follows; 100%×(1−[(V^treated(final day)−V^treated(initial day))/(V^control(final day)−V^control(initial day))]), where V is tumor volume.
(§3) Blood samples from mice were collected and analyzed for complete blood count (CBC), blood urea nitrogen (BUN), aspartate aminotransferase (AST), creatinine and total bilirubin at the Veterinary Medicine Comparative Pathology Laboratory of University of California Davis. The tumor, heart, liver, spleen, lung and kidney were harvested and the tissue samples were fixed in formalin or frozen at −80° C. […] The membranes were then probed with horseradish peroxidase (HRP) tagged secondary antibodies and epitopes were detected using the ECL Plus Western Blotting Detection Reagent (GE Healthcare, Piscataway, N.J.). Cell proliferation and apoptosis assessed with Ki-67 and cleaved caspase-3 antibodies (Cell Signaling, Danvers, Mass.) using an immunohistochemistry kit per the manufacturer's instructions (BioGenex, Fremont, Calif.).

[6] = test system: bladder cancer PDX BL0808; experiment: gemcitabine combination in bladder cancer PDX BL0808; format: in vivo
Procedure: PDX BL0808 was implanted into immunodeficient nod scid gamma (NSG) mice and treatment was started once tumor volume reached approximately 250 mm^3. Treatment consisted of either vehicle (5 μL/g PEG300, p.o., once daily until end of study), PTUPB (30 mg/kg in PEG300, p.o., once daily until end of study), gemcitabine (150 mg/kg in WFI, IP, once weekly, 4 times) or a combination of PTUPB with gemcitabine. Tumor volume and animal weight was monitored every other day and mice were sacrificed once tumor size reached 2 cm and tumor specific survival was recorded.

p-ERK and p-AKT = experiment: Western blot of PDX BL0293 tumor tissue; format: in vivo, NSG mice; conditions: day 3; BL0293 tumors
Procedure: as §3, with “C. Tumor sections were stained with hematoxylin and eosin (H&E) or were used for immunohistochemistry analysis. A board-certified pathologist provided detailed interpretation of tumor histomorphology and scoring of immunohistochemical staining. Some of the tumor sections were lysed and chromatographed using SDS-PAGE followed by transfer onto a PVDF membrane.” for “C.”

[7] = test system: bladder cancer PDX BL0293; experiment: tumor growth and survival in NSG-PDX bladder cancer mouse model BL0293; format: in vivo, NSG mice
Procedure: (§4) Materials and Supplies. Bladder cancer subject-derived xenograft (PDX) models were provided by The Jackson Laboratory (JAX, Bar Harbor, Me.). […] All experiments utilized PDX models within the first five passages. […] Gemcitabine was purchased from LC Laboratories (Woburn, Mass.). […] The cell lines have not been tested and authenticated by the authors.
as §2
(§5) Statistics. Data are presented as mean±standard error of the mean (SEM) or mean±standard deviation (SD). Group comparisons were carried out using one-way analysis of variance or Student's t test. Survival analysis was performed using the Kaplan-Meier method. A p value of less than 0.05 was considered statistically significant.

COX-2 and sEH pathways = experiment: oxylipin profile analysis (LC-MS/MS) of tumor tissue; format: in vivo, NSG mice
Procedure: Oxylipin profile analysis. Lipid extraction and analysis was performed as previously reported (20). Briefly, for tumor lipid mediator extraction, ˜100 mg of tumor tissues was mixed with an antioxidant solution (0.2 mg/mL butylated hydroxytoluene and 0.2 mg/mL triphenylphosphine in methanol), the surrogate solution, and 400 μL of extract solution (0.1% acetic acid with 0.2 mg/mL butylated hydroxytoluene in methanol), and then homogenized. The resulting homogenates were kept overnight at −80° C. Next day, the homogenates were centrifuged and supernatants were collected. The pellets were washed with 0.1% butylated hydroxytoluene and 0.1% acetic acid in methanol and the supernatants were collected and combined. LC-MS/MS analysis of the extracts were carried out on an Agilent 1200SL liquid chromatographic system coupled to a 4000 QTRAP MS/MS instrument (AB Sciex) as described (29).

[8] = test system: bladder cancer PDX BL0269; experiment: tumor growth in NSG-PDX bladder cancer mouse model BL0269; format: in vivo, NSG mice
Procedure: as §4, §2, §5

[9] = BL0293, PTUPB 30 mg/kg orally once daily, cisplatin 2 mg/kg i.v.

For `NS(=O)(=O)c1ccc(-n2nc(CCCNC(=O)Nc3ccc(C(F)(F)F)cc3)cc2-c2ccccc2)cc1` [PTUPB, 4-(5-phenyl-3-{3-[3-(4-trifluoromethyl-phenyl)-ureido]-propyl}-pyrazol-1-yl)-benzenesulfonamide], the “COX-1 (% inhibition)” value (COX-1) was 22.7%, the “effect on cisplatin cytotoxicity” value [1] was “did not increase cisplatin cytotoxicity” and the IC50 ([2]; Homo sapiens, single drug, 72 hr) was 90.4 µM. The “drug-drug interaction with cisplatin (combination index)” value ([2]; PTUPB 1, 2, 5 and 10 μM with cisplatin at 5 μM) was “modest synergistic effects”, the “effect on cisplatin cytotoxicity” value [3] was “did not increase cisplatin cytotoxicity” and the “effect on cisplatin cytotoxicity” value [4] was “did not increase cisplatin cytotoxicity”. For the same compound, the body weight change [5] was “slightly decreased body weight”, the “histology examination of major organs” value [5] was “no such morphology changes were observed” and the “gemcitabine chemotherapy efficacy (tumor volume)” value ([6]; PTUPB 30 mg/kg p.o. with gemcitabine 150 mg/kg IP) was “extends gemcitabine chemotherapy efficacy”. The “gemcitabine toxicity (animal weight)” value ([6]; PTUPB with gemcitabine) was “does not increase gemcitabine toxicity”, the tumor specific survival ([6]; PTUPB with gemcitabine) was “increases tumor specific survival” and the “levels of p-ERK and p-AKT” value (p-ERK and p-AKT) was “did not significantly diminish”. For the same compound, the “median time to a […] increase in tumor volume” value [7, 9] was 24.4 days, the overall survival [7, 9] was 39.4 days and the “anti-tumor activity, single agent” value ([7]; mice bearing BL0293 tumors) was “moderate anti-tumor activity”. For the same compound, the “effect on diol metabolites 10,11-DiHDPE and 15,16-DiHODE” value (COX-2 and sEH pathways; BL0269 tumors) was “no effect”, the “increase of 10,11-EpDPE, 15,16-EpODE” value (COX-2 and sEH pathways; BL0269 tumors) was “approximately two-fold increase” and the “reduction of levels of prostaglandins PGE2, PGD2, TXB2, 6-keto-PGF1α in tumor” value (COX-2 and sEH pathways; mouse, in vivo) was roughly 50%. For the same compound, the “decrease of diol metabolite 12,13-DiHOME” value (COX-2 and sEH pathways; tumor) was roughly 2 fold, the “increase of 12,13-EpOME” value (COX-2 and sEH pathways; tumor) was “approximately two-fold increase” and the “inhibition of tumor growth on addition to GC (gemcitabine and cisplatin)” value ([8]; PTUPB 30 mg/kg, cisplatin 2 mg/kg, gemcitabine 150 mg/kg) was “best inhibition of tumor growth”. The “potentiation of cisplatin with respect to inhibiting tumor growth” value ([8]; combined with cisplatin 2 mg/kg) was “best and most statistically significant potentiation”.
